The results in this text go back to US8853281B2, “Cysteine protease inhibitors” (Medivir UK Ltd, priority 2008, dated 2014).

Holding throughout (format): biochemical
The target in assay [1] is T1, human cathepsin S (Homo sapiens, UniProt P25774).
T1 construct: made in house; host or cells: baculovirus expression system
In words: Cathepsin S Ki determination (boc-Val-Leu-Lys-AMC fluorescent substrate). Particulars: baculovirus-expressed human cathepsin S 2 nM, pH 6.5, competitive inhibition fit; read-out: Ki Cat. S. On the procedure:
Cathepsin S Ki Determination
The assay uses baculovirus-expressed human cathepsin S and the boc-Val-Leu-Lys-AMC fluorescent substrate available from Bachem in a 384 well plate format, in which 7 test compounds can be tested in parallel with a positive control comprising a known cathepsin S inhibitor comparator.
280 μl/well of 12.5% DMSO are added to rows B-H of two columns of a 96 deep well polypropylene plate. 70 μl/well of substrate is added to row A. 2×250 μl/well of assay buffer (100 mM Na phosphate, 100 mM NaCl, pH 6.5) is added to row A, mixed, and double diluted down the plate to row H.
100 μl/well of assay buffer is added to columns 2-5 and 7-12 of 4 rows of a 96 well V bottom polypropylene plate. 200 μl/well of assay buffer is added to columns 1 and 6.
The first test compound prepared in DMSO is added to column 1 of the top row, typically at a volume to provide between 10 and 30 times the initially determined rough Ki. The rough Ki is calculated from a preliminary run in which 10 μl/well of 1 mM boc-VLK-AMC ( 1/10 dilution of 10 mM stock in DMSO diluted into assay buffer) is dispensed to rows B to H and 20 μl/well to row A of a 96 well Microfluor™ plate. 2 μl of each 10 mM test compound is added to a separate well on row A, columns 1-10. Add 90 μl assay buffer containing 1 mM DTT and 2 nM cathepsin S to each well of rows B-H and 180 μl to row A. Mix row A using a multichannel pipette and double dilute to row G. Mix row H and read in the fluorescent spectrophotometer. The readings are Prism data fitted to the competitive inhibition equation, setting S=100 μM and KM=100 μM to obtain an estimate of the Ki, up to a maximum of 100 μM.
The second test compound is added to column 6 of the top row, the third to column 1 of the second row etc. Add 1 μl of comparator to column 6 of the bottom row. Mix column 1 and double dilute to column 5. Mix column 6 and double dilute to column 10.
Using an 8-channel multistepping pipette set to 5×10 μl, distribute 10 μl/well of substrate to the 384 well assay plate. Distribute the first column of the substrate dilution plate to all columns of the assay plate starting at row A. The tip spacing of the multichannel pipette will correctly skip alternate rows. Distribute the second column to all columns starting at row B.
Using a 12-channel multistepping pipette set to 4×10 μl, distribute 10 μl/well of inhibitor to the 384 well assay plate. Distribute the first row of the inhibitor dilution plate to alternate rows of the assay plate starting at A1. The tip spacing of the multichannel pipette will correctly skip alternate columns. Similarly, distribute the second, third and fourth rows to alternate rows and columns starting at A2, B1 and B2 respectively.
Mix 20 ml assay buffer and 20 μl 1M DTT. Add sufficient cathepsin S to give 2 nM final concentration.
Using the a distributor such as a Multidrop 384, add 30 μl/well to all wells of the assay plate and read in fluorescent spectrophotomoter such as an Ascent.
Fluorescent readings, (excitation and emission wavelengths 390 nm and 460 nm respectively, set using bandpass filters) reflecting the extent of enzyme cleavage of the fluorescent substrate, […] the inhibitor, are linear rate fitted for each well.
Fitted rates for all wells for each inhibitor are fitted to the competitive inhibition equation using SigmaPlot 2000 to determine V, Km and Ki values.
(§1) Potential inhibitors are screened using the above assay with variable concentrations of test compound. Reactions were initiated by addition of enzyme to buffered solutions of substrate and inhibitor. Ki values were calculated according to equation 1.
(§2) [formula] where v0 is the velocity of the reaction, V is the maximal velocity, S is the concentration of substrate with Michaelis constant of KM, and I is the concentration of inhibitor.

Assay [2] addresses T2, cathepsin K (Homo sapiens, UniProt P43235).
T2 construct: made in house; host or cells: not fixed: E coli, Pichia or Baculovirus systems named as options
T2 sequence (P43235 115-329): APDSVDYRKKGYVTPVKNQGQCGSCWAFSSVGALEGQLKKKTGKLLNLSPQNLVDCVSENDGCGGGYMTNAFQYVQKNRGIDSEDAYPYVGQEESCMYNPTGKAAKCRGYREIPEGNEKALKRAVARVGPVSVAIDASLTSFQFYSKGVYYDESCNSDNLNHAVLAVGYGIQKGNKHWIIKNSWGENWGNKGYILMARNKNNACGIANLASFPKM
The assay can be described thus: Determination of cathepsin K proteolytic catalytic activity (H-D-Ala-Leu-Lys-AMC fluorogenic substrate). Particulars: human recombinant enzyme 5 nM, ambient temperature; read-out: Ki Cat. K. As to the method:
Determination of Cathepsin K Proteolytic Catalytic Activity
Convenient assays for cathepsin K are carried out using human recombinant enzyme, such as that described in PDB.
DE Homo sapiens cathepsin K (pycnodysostosis), mRNA (cDNA clone MGC:23107
The recombinant cathepsin K can be expressed in a variety of commercially available expression systems including E coli, Pichia and Baculovirus systems. The purified enzyme is activated by removal of the prosequence by conventional methods.
Standard assay conditions for the determination of kinetic constants used a fluorogenic peptide substrate, typically H-D-Ala-Leu-Lys-AMC, and were determined in either 100 mM Mes/Tris, pH 7.0 containing 1 mM EDTA and 10 mM 2-mercaptoethanol or 100 mMNa phosphate, imM EDTA, 0.1% PEG4000 pH 6.5 or 100 mM Na acetate, pH 5.5 containing 5 mM EDTA and 20 mM cysteine, in each case optionally with […] as stabiliser. The enzyme concentration used was 5 nM. The stock substrate solution was prepared at 10 mM in DMSO. Screens were carried out at a fixed substrate concentration of 60 μM and detailed kinetic studies with doubling dilutions of substrate from 250 μM. The total DMSO concentration in the assay was kept below 3%. All assays were conducted at ambient temperature. Product fluorescence (excitation at 390 nm, emission at 460 nm) was monitored with a Labsystems Fluoroskan Ascent fluorescent plate reader. Product progress curves were generated over 15 minutes following generation of AMC product.
as §1, §2

Assay [3] deals with human cathepsin L (Homo sapiens, UniProt P07711). In words: Cathepsin L Ki (H-D-Val-Leu-Lys-AMC substrate). Particulars: human cathepsin L 5 nM, sodium acetate pH 5.5; read-out: Ki Cat. L. As to the method: The procedure above with the following amendments is used for the determination of Ki for cathepsin L.
human cathepsin L, sequence (P07711 114-333): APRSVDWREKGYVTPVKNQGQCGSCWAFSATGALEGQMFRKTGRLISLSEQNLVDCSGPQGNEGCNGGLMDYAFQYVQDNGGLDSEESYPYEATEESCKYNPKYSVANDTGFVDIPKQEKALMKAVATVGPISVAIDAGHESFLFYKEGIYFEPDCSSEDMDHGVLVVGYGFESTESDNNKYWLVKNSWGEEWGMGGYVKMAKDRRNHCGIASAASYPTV
The enzyme is commercially available human cathepsin L (for example Calbiochem). The substrate is H-D-Val-Leu-Lys-AMC available from Bahcem. The assay buffer is 100 mM sodium acetate 1 mM EDTA, pH5.5) The DMSO stock (10 mM in 100% DMSO) is diluted to 10% in assay buffer. Enzyme is prepared at 5 nM concentration in assay buffer plus 1 mM dithiothreitol just before use. 2 ul of 10 mM inhibitor made up in 100% DMSO is dispensed into row A. 10 μl of 50 μM substrate (= 1/200 dilution of 10 mM stock in DMSO, diluted in assay buffer).
as §1, §2

pKi: −log10 of the molar value.

T1 sequence (P25774 115-331): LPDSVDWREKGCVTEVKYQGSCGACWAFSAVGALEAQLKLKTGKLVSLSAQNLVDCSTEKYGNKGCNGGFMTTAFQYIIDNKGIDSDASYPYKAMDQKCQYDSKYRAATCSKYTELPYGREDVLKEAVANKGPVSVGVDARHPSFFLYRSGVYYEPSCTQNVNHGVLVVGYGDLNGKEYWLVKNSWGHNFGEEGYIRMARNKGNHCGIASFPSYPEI

Usually pKi stands for the negative decadic logarithm of the Ki, by convention in mol/L. As for `COC1CC(NC(=O)C(CC2(C)CCC2)NC(=O)N2CCOCC2)(C(=O)C(=O)NC2CC2)C1` (single isomer, unassigned) [Example 122], the pKi was 8.41 in assay [1], 6.00 in assay [2] and 5.42 in assay [3].
For `CC1(C[C@H](NC(=O)N2CCOCC2)C(=O)NC2(C(=O)C(=O)NC3CC3)CCC2)CCCC1` [Example 2], the pKi in assay [1] is 8.64; in assay [2], 5.46; in assay [3] it was 5.15.
For `Cn1ccc(NC(=O)C(=O)C2(NC(=O)[C@H](CC3(C)CCCC3)NC(=O)N3CCOCC3)CCC2)n1` [Example 6], in that order: 9.72, 6.34 and 6.22.
For `CC1(C[C@H](NC(=O)c2ccoc2)C(=O)NC2(C(=O)C(=O)NC3CC3)CC(F)(F)C2)CCCC1` [Example 27], in that order: 9.10, 5.64 and 4.92.
The like results for `CC1(C[C@H](NC(=O)N2CCOCC2)C(=O)NC2(C(=O)C(=O)NCCCCl)CCC2)CCCC1` [Example 35] were, in that order, 8.70, 5.46 and 5.20.
In the case of `O=C(NC1CC1)C(=O)C1(NC(=O)[C@H](CC2(F)CCCC2)NC(=O)c2ccc(O)c(F)c2)CC(F)(F)C1` [Example 50, N-[1-(1-Cyclopropylaminooxalyl-3,3-difluoro-cyclobutylcarbamoyl)-2-(1-fluoro-cyclopentyl)-ethyl]-3-fluoro-4-hydroxy-benzamide], the pKi in assay [1] is 9.00; in assay [2], 5.62; in assay [3], 5.51.
The like results for `Cn1ccc(NC(=O)C(=O)C2(NC(=O)[C@H](CC3(C)CCCC3)NC(=O)C3CC3)CC(F)C2)n1` (stereo partly drawn) [Example 60] were, in that order, 9.62, 6.44 and 5.77.
For `CNC(=O)C(=O)C1(NC(=O)[C@H](CC(C)(C)C)NC(=O)c2ccc(NS(=O)(=O)c3ccccc3)cc2)CCC1` [Example 75], in that order: 9.23, 6.51 and 4.85.
For `Cn1ccc(NC(=O)C(=O)C2(NC(=O)[C@H](CC3CCCCC3)NC(=O)N3CCOCC3)CC(F)(F)C2)n1` [Example 111], in that order: 9.19, 5.44 and 6.70.
As to `Cn1ccc(NC(=O)C(=O)[C@]2(NC(=O)[C@H](CC3(C)CCCC3)NC(=O)N3CCCC3)C[C@H](F)C2)n1` [Example 123, Pyrrolidine-1-carboxylic Acid [1-[3-fluoro-1-(1-methyl-1H-pyrazol-3-ylaminooxalyl)-cyclobutylcarbamoyl]-2-(1-methyl-cyclopentyl)-ethyl]-amide], the pKi was 9.46 in assay [1], 6.74 in assay [2] and 5.82 in assay [3].
